Laboratory results reported in US20190255073A1, “ESTERS OF 3-POLYAMINE DERIVATIVES OF BILE ACIDS FOR THE TREATMENT OF INFECTIONS” (VIRBAC, priority 2016, published 2019).
In brackets after ≈: the same amount, converted by molar mass.

Key:
CHO-K1 cells = experiment: WST1 cytotoxicity test on CHO-K1 cells; type: cell-based, Chinese hamster; details: Cricetulus griseus, CHO-K1, read-out: IC50 (μg/mL) CHO
Method in brief: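 CHO-K1 cells seeded 24 h, then exposed to increasing compound concentrations in duplicate for 24 h at 37 °C, 5% CO2. Viability by WST-1 reduction (20 min, 37 °C), absorbance at 450 nm. IC50 = concentration reducing viability by 50%, from nonlinear regression of dose-response.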

S. aureus ATCC25923 = experiment: MIC determination by microplate dilution, S. aureus human strain; type: cell-based, Staphylococcus aureus; details: Staphylococcus aureus, ATCC25923, Gram-positive, Mueller-Hinton medium, 24 h, 37° C.
Method in brief: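 MH broth; inoculum OD 0.01/well; compound stock 5 mg/mL (DMSO:MeOH 1:1), serial 1/2 dilutions; 37 °C, 24 h, humid; OD 620 nm; n=2.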

For `CC(C)OC(=O)CC[C@@H](C)[C@H]1CCC2C3C(CC[C@@]21C)[C@@]1(C)CC[C@H](NCCCN(CCCN)CCCN)CC1C[C@H]3O` (stereo partly drawn) [(39), isopropyl 3β-(tris(3-aminopropyl)amine)chenodeoxycholate], the IC50 (CHO-K1 cells) was 110 µg/mL (≈ 182 µM) and the MIC (S. aureus ATCC25923) was 7 µg/mL (≈ 11.6 µM).
